From PubChem BioAssay AID248 (DTP/NCI, 2004)
“And” between values parts separate entries of the source, which are not always exact repeats. Equal values may be shown once. Inconclusive results and toxic doses are left out. Cut-off read from the data, not from the text of the source: active = T/C of 150% or more; inactive = T/C below 125%.

Tested on: L1210 leukemia ip in BDF1 mice, survival T/C
Test: NCI In Vivo Anticancer Drug Screen. Data for tumor model L1210 Leukemia (intraperitoneal) in B6D2F1 (BDF1) mice
Conditions: endpoint: mean survival time, higher = longer survival
How it was run: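 Tumor was transplanted into mice, which were then dosed with test compound or vehicle alone. Survival was recorded for each group, and the treated figure was expressed relative to the control figure.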

[1] = dose: 100.0 mg/kg/injection, schedule: Q01DX001 (ip), vehicle: saline
[2] = dose: 100.0 mg/kg/injection, schedule: Q04DX003 (ip), vehicle: Klucel (hydroxypropylcellulose) (HPC)
[3] = dose: 200.0 mg/kg/injection, schedule: Q01DX001 (ip), vehicle: saline
[4] = dose: 200.0 mg/kg/injection, schedule: Q04DX003 (ip), vehicle: Klucel (hydroxypropylcellulose) (HPC)
[5] = dose: 400.0 mg/kg/injection, schedule: Q01DX001 (ip), vehicle: saline
[6] = dose: 400.0 mg/kg/injection, schedule: Q04DX003 (ip), vehicle: Klucel (hydroxypropylcellulose) (HPC)
[7] = dose: 100.0 mg/kg/injection, schedule: Q01DX009 (ip), vehicle: Klucel (hydroxypropylcellulose) (HPC)
[8] = dose: 200.0 mg/kg/injection, schedule: Q01DX009 (ip), vehicle: Klucel (hydroxypropylcellulose) (HPC)
[9] = dose: 100.0 mg/kg/injection, schedule: Q01DX001 (ip), vehicle: carboxymethylcellulose (CMC)
[10] = dose: 200.0 mg/kg/injection, schedule: Q01DX001 (ip), vehicle: carboxymethylcellulose (CMC)
[11] = dose: 400.0 mg/kg/injection, schedule: Q01DX001 (ip), vehicle: carboxymethylcellulose (CMC)
[12] = dose: 25.0 mg/kg/injection, schedule: Q01DX009 (ip), vehicle: Klucel (hydroxypropylcellulose) (HPC)
[13] = dose: 50.0 mg/kg/injection, schedule: Q01DX009 (ip), vehicle: Klucel (hydroxypropylcellulose) (HPC)
[14] = dose: 100.0 mg/kg/injection, schedule: Q04DX003 (ip), vehicle: saline with Tween-80
[15] = dose: 200.0 mg/kg/injection, schedule: Q04DX003 (ip), vehicle: saline with Tween-80

Measured: T/C

COc1cc(C(=O)NCC2(C)OC3(OC(=O)C2O)C(=O)N/C(=C(\C=O)C(C)=O)OC3C(O)C2CN2C(C)=O)c2cccc(C)c2c1 (stereo unspecified)
inactive: dose: 0.05 mg/kg/injection, schedule: Q01DX015 (oral), vehicle: clinical formulation 107 % of control | dose: 0.1 mg/kg/injection, schedule: Q01DX001 (ip), vehicle: clinical formulation 104 % of control and 120 % of control | dose: 0.1 mg/kg/injection, schedule: Q01DX015 (oral), vehicle: clinical formulation 113 % of control | dose: 0.15 mg/kg/injection, schedule: Q03DX005 (ip), vehicle: clinical formulation 111 % of control | dose: 0.2 mg/kg/injection, schedule: Q01DX001 (ip), vehicle: clinical formulation 103 % of control | dose: 0.2 mg/kg/injection, schedule: Q07DX003 (ip), vehicle: clinical formulation 105 % of control | dose: 0.4 mg/kg/injection, schedule: Q01DX001 (ip), vehicle: clinical formulation 95 % of control and 115 % of control | dose: 0.8 mg/kg/injection, schedule: Q01DX001 (ip), vehicle: clinical formulation 107 % of control | dose: 3.5 micrograms/kg/injection, schedule: Q03DX005 (ip), vehicle: clinical formulation 114 % of control | dose: 6.0 micrograms/kg/injection, schedule: Q01DX015 (ip), vehicle: clinical formulation 112 % of control | dose: 6.0 micrograms/kg/injection, schedule: Q01DX045 (ip), vehicle: clinical formulation 124 % of control | dose: 7.0 micrograms/kg/injection, schedule: Q03DX005 (ip), vehicle: clinical formulation 122 % of control | dose: 12.5 micrograms/kg/injection, schedule: Q01DX006 (iv), vehicle: clinical formulation 109 % of control | dose: 12.5 micrograms/kg/injection, schedule: Q01DX015 (im), vehicle: clinical formulation 103 % of control | dose: 12.5 micrograms/kg/injection, schedule: Q01DX045 (ip), vehicle: clinical formulation 118 % of control | dose: 13.0 micrograms/kg/injection, schedule: Q01DX Z (ip), vehicle: saline 113 % of control | dose: 13.0 micrograms/kg/injection, schedule: Q07DX003 (ip), vehicle: clinical formulation 118 % of control | dose: 25.0 micrograms/kg/injection, schedule: Q01DX006 (iv), vehicle: clinical formulation 101 % of control | dose: 25.0 micrograms/kg/injection, schedule: Q01DX015 (im), vehicle: clinical formulation 109 % of control | dose: 25.0 micrograms/kg/injection, schedule: Q01DX Z (ip), vehicle: saline 113 % of control | dose: 25.0 micrograms/kg/injection, schedule: Q07DX003 (ip), vehicle: clinical formulation 124 % of control | dose: 50.0 micrograms/kg/injection, schedule: Q01DX006 (iv), vehicle: clinical formulation 115 % of control | dose: 50.0 micrograms/kg/injection, schedule: Q01DX015 (im), vehicle: clinical formulation 115 % of control | dose: 50.0 micrograms/kg/injection, schedule: Q01DX Z (ip), vehicle: saline 98 % of control and 107 % of control | dose: 100.0 micrograms/kg/injection, schedule: Q01DX006 (iv), vehicle: clinical formulation 123 % of control | dose: 100.0 micrograms/kg/injection, schedule: Q01DX015 (im), vehicle: clinical formulation 110 % of control | dose: 100.0 micrograms/kg/injection, schedule: Q01DX015 (ip), vehicle: clinical formulation 95 % of control | dose: 100.0 micrograms/kg/injection, schedule: Q01DX Z (ip), vehicle: saline 89 % of control

CCCCCCCCOC(=O)c1ccc2nc3cc4ccccc4cc3nc2c1
inactive: dose: 100.0 mg/kg/injection, schedule: Q04DX002 (ip), vehicle: Klucel (hydroxypropylcellulose) (HPC) 94 % of control | dose: 200.0 mg/kg/injection, schedule: Q04DX002 (ip), vehicle: Klucel (hydroxypropylcellulose) (HPC) 92 % of control | dose: 400.0 mg/kg/injection, schedule: Q04DX002 (ip), vehicle: Klucel (hydroxypropylcellulose) (HPC) 92 % of control

C#CCOCCC(C(=O)OCC)C(=O)OCC
inactive: dose: 100.0 mg/kg/injection, schedule: Q01DX009 (ip), vehicle: saline 96 % of control | dose: 200.0 mg/kg/injection, schedule: Q01DX009 (ip), vehicle: saline 91 % of control | dose: 400.0 mg/kg/injection, schedule: Q01DX009 (ip), vehicle: saline 102 % of control

CNC1(c2ccccc2)CC2CCC(C2)C1O (stereo unspecified)
inactive: [1] 98 % of control | [2] 101 % of control | [3] 106 % of control | [4] 104 % of control | [5] 101 % of control | [6] 108 % of control

O=C(O)C1c2ccccc2Cc2ccccc21
inactive: [7] 110 % of control | [2] 103 % of control | [8] 101 % of control | [4] 97 % of control | [6] 106 % of control

O=C(NCCCCCCNC(=O)N(Cc1ccccc1)Cc1ccccc1)N(Cc1ccccc1)Cc1ccccc1
inactive: dose: 100.0 mg/kg/injection, schedule: Q04DX002 (ip), vehicle: saline 105 % of control | dose: 200.0 mg/kg/injection, schedule: Q04DX002 (ip), vehicle: saline 97 % of control | dose: 400.0 mg/kg/injection, schedule: Q04DX002 (ip), vehicle: saline 108 % of control

O=C(O)c1ccccc1N=Cc1ccc(N(CCCl)CCCl)cc1
inactive: dose: 50.0 mg/kg/injection, schedule: Q01DX001 (ip), vehicle: carboxymethylcellulose (CMC) 103 % of control | [9] 122 % of control | [10] 114 % of control | [11] 111 % of control

CCS(=O)(=O)c1ncc2cnccn12
inactive: dose: 50.0 mg/kg/injection, schedule: Q01DX009 (ip), vehicle: water 98 % of control | dose: 100.0 mg/kg/injection, schedule: Q01DX009 (ip), vehicle: water 98 % of control and 101 % of control | dose: 100.0 mg/kg/injection, schedule: Q04DX003 (ip), vehicle: water 93 % of control | dose: 200.0 mg/kg/injection, schedule: Q01DX009 (ip), vehicle: water 105 % of control and 110 % of control | dose: 200.0 mg/kg/injection, schedule: Q04DX003 (ip), vehicle: water 95 % of control

COc1ccc(CNC(C)(C)CO)c(OC)c1
inactive: dose: 75.0 mg/kg/injection, schedule: Q01DX001 (ip), vehicle: saline 101 % of control | dose: 150.0 mg/kg/injection, schedule: Q01DX001 (ip), vehicle: saline 102 % of control | dose: 300.0 mg/kg/injection, schedule: Q01DX001 (ip), vehicle: saline 98 % of control

S=C(NCc1ccc(Cl)cc1Cl)Nc1ccccc1
inactive: [12] 101 % of control | [13] 98 % of control | [7] 103 % of control and 109 % of control | [8] 88 % of control

N#Cc1cscc1C#N
inactive: dose: 12.5 mg/kg/injection, schedule: Q01DX009 (ip), vehicle: Klucel (hydroxypropylcellulose) (HPC) 96 % of control | [12] 92 % of control | [13] 97 % of control | [7] 88 % of control | [2] 111 % of control | [4] 100 % of control | [6] 104 % of control

O=C(CC(O)(C(F)(F)F)C(F)(F)F)c1ccc(Cl)c([N+](=O)[O-])c1
inactive: dose: 75.0 mg/kg/injection, schedule: Q01DX009 (ip), vehicle: Klucel (hydroxypropylcellulose) (HPC) 102 % of control | dose: 150.0 mg/kg/injection, schedule: Q01DX009 (ip), vehicle: Klucel (hydroxypropylcellulose) (HPC) 100 % of control

CN(C)C(=O)NNC(=O)c1ccc(Cl)cc1
inactive: [14] 100 % of control | [15] 95 % of control

CC(C)(O)c1cccc(F)c1
inactive: dose: 50.0 mg/kg/injection, schedule: Q01DX009 (ip), vehicle: saline with Tween-80 90 % of control | dose: 100.0 mg/kg/injection, schedule: Q01DX009 (ip), vehicle: saline with Tween-80 93 % of control | dose: 200.0 mg/kg/injection, schedule: Q01DX009 (ip), vehicle: saline with Tween-80 121 % of control

CNC(=O)Nc1ccc(Cl)cc1C
inactive: [7] 98 % of control | [2] 96 % of control | [8] 102 % of control | [4] 96 % of control | [6] 106 % of control

Cc1cc(C)c(C(=O)CBr)c(C)c1
inactive: [9] 112 % of control | [1] 101 % of control | [10] 106 % of control | [3] 101 % of control | [11] 101 % of control | [5] 110 % of control

Oc1ccc2ccccc2c1Sc1c(O)ccc2ccccc12
inactive: [14] 101 % of control | [15] 101 % of control
